Experimental data from patent US20040229791A1, “Compositions and methods of modulating TGF-beta activity by fatty acids” (priority 2002, published 2004).

Tests used:
[1] = target: T1, TGF-β2-α2M* complex (Homo sapiens, UniProt P01023); experiment: Inhibition of 125I-TGF-β2 and α2M* complex formation (5% non-denaturing PAGE); assay type: binding; details: 50% inhibition; read-out: concentration that inhibited 50% of the complex formation of α2M* and 125I-TGF-β2
T1 construct: was purified from pooled citrate-treate human plasma; from tissue; host or cells: pooled citrate-treated human plasma
T1 sequence (P01023 24-1474): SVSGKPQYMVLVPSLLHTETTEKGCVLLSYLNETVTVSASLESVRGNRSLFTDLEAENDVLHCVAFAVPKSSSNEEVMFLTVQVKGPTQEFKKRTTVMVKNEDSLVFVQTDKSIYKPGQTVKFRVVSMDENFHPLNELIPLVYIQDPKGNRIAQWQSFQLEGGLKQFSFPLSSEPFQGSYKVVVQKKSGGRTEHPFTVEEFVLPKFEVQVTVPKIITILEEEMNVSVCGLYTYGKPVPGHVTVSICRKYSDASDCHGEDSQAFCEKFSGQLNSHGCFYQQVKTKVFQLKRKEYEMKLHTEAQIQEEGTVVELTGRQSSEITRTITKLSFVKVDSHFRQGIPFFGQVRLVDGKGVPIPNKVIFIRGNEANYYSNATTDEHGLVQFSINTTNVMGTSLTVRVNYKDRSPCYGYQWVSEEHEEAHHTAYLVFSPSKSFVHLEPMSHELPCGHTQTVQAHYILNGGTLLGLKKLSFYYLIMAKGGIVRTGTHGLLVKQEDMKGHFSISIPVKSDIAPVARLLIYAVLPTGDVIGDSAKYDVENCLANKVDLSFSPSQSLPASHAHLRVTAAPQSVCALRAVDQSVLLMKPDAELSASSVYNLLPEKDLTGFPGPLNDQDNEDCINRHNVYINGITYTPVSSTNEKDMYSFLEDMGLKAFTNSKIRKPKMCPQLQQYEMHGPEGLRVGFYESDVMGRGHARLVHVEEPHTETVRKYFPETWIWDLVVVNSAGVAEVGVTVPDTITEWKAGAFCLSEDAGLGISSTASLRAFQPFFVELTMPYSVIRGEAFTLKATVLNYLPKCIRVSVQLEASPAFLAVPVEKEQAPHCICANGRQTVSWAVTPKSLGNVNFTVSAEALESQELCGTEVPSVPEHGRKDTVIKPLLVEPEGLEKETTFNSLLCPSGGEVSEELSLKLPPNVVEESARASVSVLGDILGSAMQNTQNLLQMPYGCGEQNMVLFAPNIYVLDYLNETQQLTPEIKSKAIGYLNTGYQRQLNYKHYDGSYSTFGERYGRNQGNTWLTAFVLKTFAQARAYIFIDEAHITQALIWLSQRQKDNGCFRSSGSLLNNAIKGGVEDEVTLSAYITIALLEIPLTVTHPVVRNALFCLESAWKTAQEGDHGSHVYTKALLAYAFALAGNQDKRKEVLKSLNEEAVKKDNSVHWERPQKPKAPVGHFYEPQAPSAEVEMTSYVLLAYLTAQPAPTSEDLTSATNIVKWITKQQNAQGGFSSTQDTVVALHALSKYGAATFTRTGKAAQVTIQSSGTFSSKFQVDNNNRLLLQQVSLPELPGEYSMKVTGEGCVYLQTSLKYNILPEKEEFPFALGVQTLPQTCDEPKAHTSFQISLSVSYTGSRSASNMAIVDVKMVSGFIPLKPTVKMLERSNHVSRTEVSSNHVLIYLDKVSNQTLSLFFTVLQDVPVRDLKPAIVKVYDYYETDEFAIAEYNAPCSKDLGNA
Protocol: (§1) TGF- ? isoforms bind to α2M* with different affinities: TGF ? β2>TGF ? β1 ( active sites of TGF ? β1 and TGF- ? 2 responsible for high-affinity binding to ? 2M* are disti from the low-affinity ? 2M* binding site in TGF- ? 3 (19). To determine if fatty acids differentially affect the binding of TGF- ? isoforms to ? 2M*, the effects of various concentrations of arachidonic acid and myristic acid on complex formation of ^125I-labeled TGF ? β isoforms and ? 2M were determined*. […] It inhibited 30% of the complex form . α2M* and TGF ? β2 and TGF ? β3 at 100 and >250 μM, respectively. Arachidon polyunsaturated fatty acid, was a stronger inhibitor of complex formation of ? 2M* and TGF-.β2/TGF ? β3. It inhibited 50% of the complex formation of ? 2M* and ^125I-TGF- ? 2 at 50 μM (FIG. 3A). The observation that myristic acid and arachidonic acid inhibited complex formation of ^125I-TGF- ? […] 2M* complexes in the reaction mixtures were then analyzed by 7.5% SDS-PAGE and autoradiography.
(§2) Complex formation of ^125I-TGF-β and ? […] After 30 min at room temperature, the complex formation of ^125I-TGF- ? and. α2M* was determined by 5% non-denaturing polyacrylamide gel electrophoresis (PAGE) or by 7.5% SDS-PAGE following cross-linking by 0.6 mM DSS. After electrophoresis, the gel was stained with Coomassie blue and analyzed by autoradiography. […] 2M* was quantified using a PhosphoImager (Fuji).

[2] = target: T2, 125I-TGF-β isoform-α2M* complexes (Homo sapiens, UniProt P01023); experiment: Complex formation of 125I-TGF-β isoforms and α2M* by DSS cross-linking and 7.5% SDS-PAGE; assay type: binding; details: DSS cross-linking, effective concentrations comparable to non-denaturing PAGE
T2 construct: was purified from pooled citrate-treate human plasma; from tissue; host or cells: pooled citrate-treated human plasma
T2 sequence (P01023 24-1474): T1 sequence (P01023 24-1474)
Protocol: as §1, §2

CCCCC/C=C\C/C=C\C/C=C\C/C=C\CCCC(=O)O [arachidonic acid]
IC50 [1]: 50 µM | blocking of cross-linked 125I-TGF-β isoform-α2M* complex formation [2]: blocked complex formation
